In PubChem BioAssay AID2060600 (Molecular Pharmacology Branch, DTP, NCI, 2025):
“And” between values parts separate entries of the source, which are not always exact repeats. Equal values may be shown once. One block for each molecule: values may come before it.

System: 996289-038-R-J1-PDC complex spheroid viability
Assay: Anticancer human tumor 996289-038-R-J1-PDC patient-derived colon adenocarcinoma cell line growth inhibition [CLK]
Settings: for viability, T/C: stronger effect = lower value
Method in brief: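 Patient-derived tumor cells grown as complex spheroids with HUVEC endothelial cells and mesenchymal stem cells, treated with drug combinations. Concentrations descend in half-log steps from near clinical Cmax, or from 10 microM if Cmax unknown.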

[1] = curve of first compound, second compound 0.0316 µM
[2] = curve of first compound, second compound 0.1 µM
[3] = curve of first compound, second compound 0.316 µM
[4] = curve of first compound, second compound 1 µM
[5] = curve of first compound, second compound 3.16 µM
[6] = curve of first compound, second compound 10 µM
[7] = second compound 0.0316 µM, first compound 0.0316 µM
[8] = second compound 0.0316 µM, first compound 0.1 µM
[9] = second compound 0.0316 µM, first compound 0.316 µM
[10] = second compound 0.0316 µM, first compound 1 µM
[11] = second compound 0.0316 µM, first compound 3.16 µM
[12] = second compound 0.0316 µM, first compound 10 µM
[13] = second compound 0.1 µM, first compound 0.0316 µM
[14] = second compound 0.1 µM, first compound 0.1 µM
[15] = second compound 0.1 µM, first compound 0.316 µM
[16] = second compound 0.1 µM, first compound 1 µM
[17] = second compound 0.1 µM, first compound 3.16 µM
[18] = second compound 0.1 µM, first compound 10 µM
[19] = second compound 0.316 µM, first compound 0.0316 µM
[20] = second compound 0.316 µM, first compound 0.1 µM
[21] = second compound 0.316 µM, first compound 0.316 µM
[22] = second compound 0.316 µM, first compound 1 µM
[23] = second compound 0.316 µM, first compound 3.16 µM
[24] = second compound 0.316 µM, first compound 10 µM
[25] = second compound 1 µM, first compound 0.0316 µM
[26] = second compound 1 µM, first compound 0.1 µM
[27] = second compound 1 µM, first compound 0.316 µM
[28] = second compound 1 µM, first compound 1 µM
[29] = second compound 1 µM, first compound 3.16 µM
[30] = second compound 1 µM, first compound 10 µM
[31] = second compound 3.16 µM, first compound 0.0316 µM
[32] = second compound 3.16 µM, first compound 0.1 µM
[33] = second compound 3.16 µM, first compound 0.316 µM
[34] = second compound 3.16 µM, first compound 1 µM
[35] = second compound 3.16 µM, first compound 3.16 µM
[36] = second compound 3.16 µM, first compound 10 µM
[37] = second compound 10 µM, first compound 0.0316 µM
[38] = second compound 10 µM, first compound 0.1 µM
[39] = second compound 10 µM, first compound 0.316 µM
[40] = second compound 10 µM, first compound 1 µM
[41] = second compound 10 µM, first compound 3.16 µM
[42] = second compound 10 µM, first compound 10 µM
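Also: spheroids exposed to the agents for 7 days before readout.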

Compound: COC1C=CCC(C)C(C)S(=O)(=O)NC(=O)c2ccc3c(c2)N(CC2CCC21)CC1(CCCc2cc(Cl)ccc21)CO3 (stereo not drawn) + CN1CCN(c2cc(C(=O)Nc3cc4cc(-c5cnn(C)c5)ccc4cn3)ccn2)CC1
IC50 [1]: 4530 nM | IC50 [2]: 2780 nM | IC50 [3]: 1470 nM | IC50 [4]: < 31.6 nM | IC50 [5]: < 31.6 nM | IC50 [6]: < 31.6 nM | viability, T/C [7]: 98.8% | viability, T/C [8]: 106% | viability, T/C [9]: 96.2% | viability, T/C [10]: 79.5% | viability, T/C [11]: 60.4% | viability, T/C [12]: 30.1% | viability, T/C [13]: 93.3% | viability, T/C [14]: 86.1% | viability, T/C [15]: 78.8% | viability, T/C [16]: 78% | viability, T/C [17]: 45.6% | viability, T/C [18]: 27.7% | viability, T/C [19]: 60.6% | viability, T/C [20]: 74.7% | viability, T/C [21]: 63.6% | viability, T/C [22]: 53.9% | viability, T/C [23]: 39.6% | viability, T/C [24]: 21% | viability, T/C [25]: 7.76% | viability, T/C [26]: 8.39% | viability, T/C [27]: 6.69% | viability, T/C [28]: 4.97% | viability, T/C [29]: 4.86% | viability, T/C [30]: 2.21% | viability, T/C [31]: 1.75% | viability, T/C [32]: 0.92% | viability, T/C [33]: 1.25% | viability, T/C [34]: 1.45% | viability, T/C [35]: 1.53% | viability, T/C [36]: 0.93% | viability, T/C [37]: 1.98% | viability, T/C [38]: 1.21% | viability, T/C [39]: 0.68% | viability, T/C [40]: 0.74% | viability, T/C [41]: 0.47% | viability, T/C [42]: 1.7%

IC50 (curve of compound): > 10000 nM
Compound: COc1ccc([C@@H](O)c2cc(-c3ncnc4cc(N5CCOCC5)ccc34)c(F)cc2Cl)nn1
viability, T/C (compound 0.0316 µM): 102% | viability, T/C (compound 0.1 µM): 92.7% and 88.9% | viability, T/C (compound 0.316 µM): 101% and 90.7% | viability, T/C (compound 1 µM): 93.3% and 87.7% | viability, T/C (compound 3.16 µM): 77.5% and 79.5% | viability, T/C (compound 10 µM): 50.1% and 52.1%

IC50 (curve of compound): 5360 nM and 5440 nM
Compound: COC1C=CCC(C)C(C)S(=O)(=O)NC(=O)c2ccc3c(c2)N(CC2CCC21)CC1(CCCc2cc(Cl)ccc21)CO3 (stereo not drawn)
viability, T/C (compound 0.0316 µM): 101% and 104% | viability, T/C (compound 0.1 µM): 88.7% and 93.9% | viability, T/C (compound 0.316 µM): 93.5% and 97.9% | viability, T/C (compound 1 µM): 78.9% and 89.3% | viability, T/C (compound 3.16 µM): 64.2% and 59.8% | viability, T/C (compound 10 µM): 33.9% and 39%

Compound: C=C(F)C(=O)N1CCN(c2nc(OCC3CCCN3C)nc3c2CCN(c2cccc4cccc(Cl)c24)C3)CC1CC#N (stereo not drawn) + CN1CCN(c2cc(C(=O)Nc3cc4cc(-c5cnn(C)c5)ccc4cn3)ccn2)CC1
IC50 [1]: 4600 nM | IC50 [2]: 4410 nM | IC50 [3]: 2880 nM | IC50 [4]: < 31.6 nM | IC50 [5]: < 31.6 nM | IC50 [6]: < 31.6 nM | viability, T/C [7]: 98.2% | viability, T/C [8]: 119% | viability, T/C [9]: 97.9% | viability, T/C [10]: 104% | viability, T/C [11]: 73.4% | viability, T/C [12]: 1.4% | viability, T/C [13]: 97.1% | viability, T/C [14]: 97.5% | viability, T/C [15]: 101% | viability, T/C [16]: 95.5% | viability, T/C [17]: 70.1% | viability, T/C [18]: 0.64% | viability, T/C [19]: 66.5% | viability, T/C [20]: 79.6% | viability, T/C [21]: 70.9% | viability, T/C [22]: 64.8% | viability, T/C [23]: 48.9% | viability, T/C [24]: 0.51% | viability, T/C [25]: 6.67% | viability, T/C [26]: 6.95% | viability, T/C [27]: 6.76% | viability, T/C [28]: 6.89% | viability, T/C [29]: 1.53% | viability, T/C [30]: 0.54% | viability, T/C [31]: 0.79% | viability, T/C [32]: 0.78% | viability, T/C [33]: 1.18% | viability, T/C [34]: 0.87% | viability, T/C [35]: 1.8% | viability, T/C [36]: 0.29% | viability, T/C [37]: 0.4% | viability, T/C [38]: 0.7% | viability, T/C [39]: 1.4% | viability, T/C [40]: 0.36% | viability, T/C [41]: 0.43% | viability, T/C [42]: 0.8%
